In PubChem BioAssay (NCI):
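Where inhibition never reached the appropriate level, the endpoint shown equals the highest concentration tested. Otherwise, values were interpolated linearly from a five-concentration, 48-hour dose response in 96-well plates. GI50 marks 50% less growth. Definition used: TGI = concentration required for complete inhibition of growth.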 Where a SMILES comes first, the peptide text is derived from it. Bridges are numbered along the chain shown (N, C = ends). Roman numbers before positions name the chains, in order. [ ]: non-standard residue; d: D form. The star is where a group is joined. Quinoxaline2carbonyl = O=C(c1cnc2ccccc2n1)*; NMeV = CN[CH](C(=O)O)C(C)C; NMeC = CN[CH](CS)C(=O)O

Experiments:
Test in all cases: NCI anticancer screen, dose series, 48 h
SK-MEL-2 melanoma = tested on: SK-MEL-2 melanoma
OVCAR-3 ovarian = tested on: OVCAR-3 ovarian
UACC-62 melanoma = tested on: UACC-62 melanoma
MCF7 breast = tested on: MCF7 breast
A549 NSCLC = tested on: A549 NSCLC
SW-620 colon = tested on: SW-620 colon
SF-539 CNS = tested on: SF-539 CNS
IGROV1 ovarian = tested on: IGROV1 ovarian
SN12C renal = tested on: SN12C renal
DU-145 prostate = tested on: DU-145 prostate

| Compound | TGI (SK-MEL-2 melanoma) [µM] | TGI (OVCAR-3 ovarian) [µM] | TGI (UACC-62 melanoma) [µM] | TGI (MCF7 breast) [µM] | TGI (A549 NSCLC) [µM] | TGI (SW-620 colon) [µM] | TGI (SF-539 CNS) [µM] | TGI (IGROV1 ovarian) [µM] | TGI (SN12C renal) [µM] | GI50 (SK-MEL-2 melanoma) [µM] | GI50 (OVCAR-3 ovarian) [µM] | GI50 (UACC-62 melanoma) [µM] | GI50 (MCF7 breast) [µM] | GI50 (DU-145 prostate) [µM] | TGI (DU-145 prostate) [µM] | GI50 (IGROV1 ovarian) [µM] | GI50 (A549 NSCLC) [µM] | GI50 (SN12C renal) [µM] | GI50 (SW-620 colon) [µM] | GI50 (SF-539 CNS) [µM] |
| --- | --- | --- | --- | --- | --- | --- | --- | --- | --- | --- | --- | --- | --- | --- | --- | --- | --- | --- | --- | --- |
| CC1NC(=O)C(NC(=O)c2cnc3ccccc3n2)COC(=O)C(C(C)C)N(C)C(=O)C2CSSCC(C(=O)N(C)C(C(C)C)C(=O)OCC(NC(=O)c3cnc4ccccc4n3)C(=O)NC(C)C(=O)N2C)N(C)C1=O (configuration not stated) (I: Quinoxaline2carbonyl-SA[NMeC][NMeV] / II: Quinoxaline2carbonyl-SA[NMeC][NMeV]; ester I:1-II:C, I:C-II:1; disulfide I:3-II:3; configuration not given here) | < 0.01 | > 100 | < 0.01 | < 0.01 | 2.78 | 2.98 |  |  |  |  |  |  |  |  |  |  |  |  |  |  |
| O=P1(Oc2ccccc2)C(c2ccccc2)C(c2ccccc2)=NN1c1ccccc1 (configuration not stated) | 31.6 | 42.2 | 35.3 |  | 93.8 | 53.1 | 35.9 | 69.9 | 94.3 |  |  |  |  |  |  |  |  |  |  |  |
| COc1ccc(C2[C@@H](Cl)C(=O)N2c2cc(OC)c(OC)c(OC)c2)cc1Cl (some centres not stated) | 22.5 | 0.576 | 29 | > 100 | > 100 | 65 |  | 41.5 | > 100 | 0.177 | 0.12 | 0.0463 | 0.0367 | 0.37 | > 100 | 0.343 | 0.364 | 0.414 | 0.132 |  |
| CCOC(=O)C(=O)Nc1cc(Cl)ccc1Cl | > 100 | > 100 | > 100 |  | > 100 | > 100 | > 100 | > 100 | > 100 |  |  |  |  |  |  |  |  |  |  |  |
| N#Cc1ccc(N=Cc2c([O-])ccc3ccccc23)cc1.[C-]#[O+].[C-]#[O+].[Ir] |  | 15.1 | 24.6 |  | 38.1 | 4.09 | 29.2 | 27.9 | 27.5 |  | 4.02 | 12.2 |  |  |  | 14.1 | 20.8 | 13.2 | 1.93 | 15.2 |
| [N-]=[N+]=C1C(=O)C2CC3CC(C2)CC1C3 | > 100 | > 100 | > 100 |  | > 100 | > 100 | > 100 | > 100 | > 100 |  |  |  |  |  |  |  |  |  |  |  |
| COC(=O)CC1NC(=O)C1C1(C)OCCO1 (configuration not stated) | > 100 | > 100 | > 100 |  | > 100 | > 100 | > 100 | > 100 | > 100 |  |  |  |  |  |  |  |  |  |  |  |
| COC(CN1C=C(Sc2ccccc2)CC1)OC | 44.8 | 63.6 | > 100 |  | > 100 | 47.9 | 68.3 | > 100 | > 100 |  |  |  |  |  |  |  |  |  |  |  |
| c1ccc2c3c([nH]c2c1)C1CCCN1CC3 (configuration not stated) | > 10 | > 10 |  | > 10 |  | > 10 | > 10 | > 10 | > 10 |  |  |  |  |  | > 10 |  |  |  |  |  |
| CN(C)CCC(/C=C/c1ccccc1)=N\Nc1ccc(Cl)cc1Cl | 26.7 | 27.5 | 21.4 |  | 30.5 | 27.9 | 29 | 20.9 | 23.2 |  |  |  |  |  |  |  |  |  |  |  |
| COc1ccc(C=O)c(NC(=O)C(C)C)c1 | > 100 | > 100 | > 100 |  | > 100 | > 10 | > 100 | > 100 | 57.6 |  |  |  |  |  |  |  |  |  |  |  |
